The data set can be described thus: Stability of Form M2 on storage, polymorph checked by PXRD. Format: physicochemical. As for the experimental part:
In one aspect, the present invention provides crystalline ixazomib citrate form M1. The ixazomib citrate forms of the present invention, including form M1, prepared by methods disclosed herein, may be characterized by PXRD. Therefore samples of each ixazomib citrate form (including amorphous, M1, M2, M3, and M4) were analyzed by PXRD on a BRUKER D-8 Discover powder diffractometer equipped with a goniometer of θ/2θ configuration and Lynx Eye detector. The Cu-anode X-ray tube was operated at 40 kV and 30 mA. The experiments were conducted over the 2θ range of 2.0°-50.0°, 0.030° step size, and 0.4 seconds step time.

In the case of `CC(C)C[C@H](NC(=O)CNC(=O)c1cc(Cl)ccc1Cl)B1OC(=O)C(CC(=O)O)(CC(=O)O)O1` [Form M2, 2,2′-{2-[(1R)-1-({[(2,5-dichlorobenzoyl)amino]acetyl}amino)-3-methylbutyl]-5-oxo-1,3,2-dioxaborolane-4,4-diyl}diacetic acid], the “Long-term physical stability (change in PXRD pattern)” value (1, 3 and 6 months stored at 5±3° C., at 25° C./60% and at 40° C./75% relative humidity (RH)) is “does not show any change in PXRD pattern”. Moreover, the “Polymorph by PXRD” value runs as follows: (at 5 ± 3° C., 1 month) “Form M2”; (at 5 ± 3° C., 3 months) “Form M2”; (at 5 ± 3° C., 6 months) “Form M2”; (at 5 ± 3° C., Initial) “Form M2”; (at 25° C./60% RH, 1 month) “Form M2”; (at 25° C./60% RH, 3 months) “Form M2”. The “Polymorph by PXRD” value runs as follows: (at 25° C./60% RH, 6 months) “Form M2”; (at 25° C./60% RH, Initial) “Form M2”; (at 40° C./75% RH, 1 month) “Form M2”; (at 40° C./75% RH, 3 months) “Form M2”; (at 40° C./75% RH, 6 months) “Form M2”; (at 40° C./75% RH, Initial) “Form M2”.

(Values after patent US20180282351A1, “Amorphous Ixazomib Citrate” (Mylan Laboratories Ltd, priority 2015, published 2018).)
